In US9745283B2, “Uracil derivatives as AXL and c-MET kinase inhibitors” (priority 2011, dated 2017):

How the values were obtained:
[1] = target: recombinant human baculovirus-expressed AXL (Homo sapiens (Human), UniProt P30530); assay: AXL Kinase Assay (HTRF KinEASE); format: biochemical; conditions: average of two or more determinations
[2] = target: recombinant human baculovirus-expressed cMET (Homo sapiens (Human), UniProt P08581); assay: C-MET Kinase Assay (HTRF KinEASE); format: biochemical; conditions: average of two or more determinations; read-out: c-MET IC50
Outline: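 HTRF KinEASE format with recombinant human baculovirus-expressed cMET at 8 ng/mL, biotinylated peptide at 0.1 μM and ATP at 0.02 μM. IC50 came from percent control activity versus log concentration, fitted by nonlinear regression to a variable-slope sigmoidal equation with bottom fixed at 0 and top at 100.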

COc1cc2nccc(Oc3ccc(NC(=O)c4c[nH]c(=O)n(-c5ccc(F)cc5)c4=O)cc3OC)c2cc1OC [Example 150, 3-(4-Fluoro-phenyl)-2,4-dioxo-1,2,3,4-tetrahydro-pyrimidine-5-carboxylic acid [4-(6,7-dimethoxy-quinolin-4-yloxy)-3-methoxy-phenyl]-amide]
IC50 [1]: < 10 nM
IC50 [2]: 10 to 100 nM

COc1cc2nccc(Oc3ccc(NC(=O)c4cn(C[C@H](O)CO)c(=O)n(-c5ccc(F)cc5)c4=O)cc3F)c2cc1OC [Example 54, 1-((S)-2,3-Dihydroxypropyl)-3-(4-fluorophenyl)-2,4-dioxo-1,2,3,4-tetrahydropyrimidine-5-carboxylic acid [4-(6,7-dimethoxyquinolin-4-yloxy)-3-fluorophenyl]-amide]
IC50 [1]: < 10 nM
IC50 [2]: 10 to 100 nM

COc1cc2nccc(Oc3ccc(NC(=O)c4cn(CCCO)c(=O)n(-c5ccc(F)cc5)c4=O)cc3)c2cc1OC [Example 52, 3-(4-Fluorophenyl)-1-(3-hydroxypropyl)-2,4-dioxo-1,2,3,4-tetrahydropyrimidine-5-carboxylic acid [4-(6,7-dimethoxyquinolin-4-yloxy)phenyl]-amide]
IC50 [1]: < 10 nM
IC50 [2]: 10 to 100 nM

COc1cc2nccc(Oc3ccc(NC(=O)c4cn(CC(=O)N5CCCC5)c(=O)n(-c5ccc(F)cc5)c4=O)cc3F)c2cc1OC [Example 82, 3-(4-Fluoro-phenyl)-2,4-dioxo-1-(2-oxo-2-pyrrolidin-1-yl-ethyl)-1,2,3,4-tetrahydro-pyrimidine-5-carboxylic acid [4-(6,7-dimethoxy-quinolin-4-yloxy)-3-fluoro-phenyl]-amide]
IC50 [1]: < 10 nM
IC50 [2]: 10 to 100 nM

COc1cc2nccc(Oc3ccc(NC(=O)c4c[nH]c(=O)n(-c5ccc(F)cc5)c4=O)cc3C)c2cc1OC [Example 149, 3-(4-Fluoro-phenyl)-2,4-dioxo-1,2,3,4-tetrahydro-pyrimidine-5-carboxylic acid [4-(6,7-dimethoxy-quinolin-4-yloxy)-3-methyl-phenyl]-amide]
IC50 [1]: < 10 nM
IC50 [2]: < 10 nM

C#CCn1c(=O)c(C(=O)Nc2ccc(Oc3ccnc4cc(OC)c(OC)cc34)c(F)c2)nn(C)c1=O [Example 115, 2-Methyl-3,5-dioxo-4-prop-2-ynyl-2,3,4,5-tetrahydro-[1,2,4]triazine-6-carboxylic acid [4-(6,7-dimethoxy-uinolin-4-yloxy)-3-fluoro-phenyl]-amide]
IC50 [1]: < 10 nM
IC50 [2]: 10 to 100 nM

COc1cc2nccc(Oc3ccc(NC(=O)c4cn(CC(=O)O)c(=O)n(-c5ccc(F)cc5)c4=O)cc3F)c2cc1OC [Example 71, [5-[4-(6,7-Dimethoxyquinolin-4-yloxy)-3-fluorophenylcarbamoyl]-3-(4-fluorophenyl)-2,4-dioxo-3,4-dihydro-2H-pyrimidin-1-yl]-acetic acid]
IC50 [1]: < 10 nM
IC50 [2]: < 10 nM

COc1cc2nccc(Oc3ccc(NC(=O)c4cn(CCCOCc5ccccc5)c(=O)n(-c5ccc(F)cc5)c4=O)c(F)c3)c2cc1OC [Example 22, 1-(3-Benzyloxypropyl)-3-(4-fluorophenyl)-2,4-dioxo-1,2,3,4-tetrahydropyrimidine-5-carboxylic acid [4-(6,7-dimethoxyquinolin-4-yloxy)-2-fluorophenyl]-amide]
IC50 [1]: < 10 nM
IC50 [2]: 10 to 100 nM

COc1cc2nccc(Oc3ccc(NC(=O)c4c[nH]c(=O)n(-c5ccc(F)cc5)c4=O)c(F)c3)c2cc1OC [Example 85, 3-(4-Fluoro-phenyl)-2,4-dioxo-1,2,3,4-tetrahydro-pyrimidine-5-carboxylic acid [4-(6,7-dimethoxy-quinolin-4-yloxy)-2-fluoro-phenyl]-amide]
IC50 [1]: < 10 nM
IC50 [2]: < 10 nM

COc1cc(Oc2ccnc3cc(OC)c(OC)cc23)ccc1NC(=O)c1cn(C)c(=O)n(-c2ccc(F)cc2)c1=O [Example 144, 1-Methyl-3-(4-fluoro-phenyl)-2,4-dioxo-1,2,3,4-tetrahydro-pyrimidine-5-carboxylic acid [4-(6,7-dimethoxy-quinolin-4-yloxy)-2-methoxy-phenyl]-amide]
IC50 [1]: < 10 nM
IC50 [2]: 10 to 100 nM
